Among the data in patent publication US9480259B2, “Pyrazolopyrans having herbicidal and pharmaceutical properties” (BASF SE, priority 2012, dated 2016) are EC50 values, retold here.

The experiment concerns the target Arabidopsis thaliana SHMT. The experiment can be described thus: SHMT activity assay (ED50 SHMT), coupled with N5,N10-CH2-THF dehydrogenase, NADH at 340 nm. The class given is biochemical. As to the method:
Determination of the ED50 SHMT was carried out as described hereinunder.
Purification of Arabidopsis thaliana SHMT
The following buffers were used during the purification protocol:
Buffer A (Lysis and Wash Buffer): • 20 mM Na-Phosphat (pH 7,4) • 500 mM NaCI • 40 mM Imidazole • 1.0 mM L-Serine • 0.5 mM Pyridoxal-5-phosphate • 0.5 mM DTT
Buffer B (Elution Buffer): • 20 mM Na-Phosphat (pH 7,4) • 500 mM NaCl • 250 mM Imidazole • 1.0 mM L-Serine • 0.5 mM Pyridoxal-5-phosphate • 0.5 mM DTT
All procedures were conducted at 4° C. or on ice. Pellets were suspended in Buffer A containing 1 mg/ml DNAse +Complete EDTA-free protease inhibitor tablet. Cells were lysed using sonication or a French Press device, using standard settings. Lysis was centrifuged at 40000×g for 25 minutes. The supernatant was filtered (0.22 μM) before loading onto a Ni-NTA column.
A gravity flow column containing Ni-NTA resin was equilibrated with 10 CV Buffer A and loaded with filtered cell lysate. The column was then washed with 10 CV Buffer A. Elution was afforded using Buffer B and collected manually as mini-factions. EDTA was added after elution to a final concentration of 1 mM. Fractions were pooled on the basis of the correct band for SHMT visualised via SDS-PAGE and staining.
SHMT Assay Buffer: • 50 mM KH2PO4 (pH 7,4) • 2.0 mM NAD+ • 7.5 mM DTT • 0.3 mM Tetrahydrofolic acid • 4% DMSO
Reaction Start: 20 mM L-Serine
The rate of N5,N10-CH2-THF formation catalyzed by SHMT was monitored at 340 nm by coupling with excess N5,N10-CH2-THF dehydrogenase, which converts NAD+to NADH. Reactions were initiated by adding 20 mM L-Serine. Inhibition of initial velocity was determined by adding various inhibitors of the SHMT reaction and monitored as described. Reactions were measured in a Bio Tek micro titer plate reader following the change in absorption with the formation of NADH for 30 mimnutes.

The mark [1] stands for this setting: Table 2, Arabidopsis thaliana SHMT enzyme assay, values given as upper bounds.
Where [2] appears, read: inhibition of initial velocity of Arabidopsis thaliana SHMT.
The mark [3] stands for this setting: Table 2, values given as upper bounds.
Where [4] appears, read: Arabidopsis thaliana SHMT enzyme assay, values given as upper bounds.

Where only a bound is given, the exact number is not on record here.

On to `Cc1n[nH]c2c1C(c1cc(C#N)cc(-c3nnn[nH]3)c1)(C1CCC1)C(C#N)=C(N)O2` (stereo not shown) [Compound 2.357], for which, under setting [1], the EC50 is less than 100 nM.

`Cc1n[nH]c2c1C(c1ccc(-c3ccccc3)s1)(C1CC1)C(C#N)=C(N)O2` (stereo not shown) [Compound 4.55] showed an EC50 under setting [2] of less than 100 nM.

With `CCC1(c2cc(Cl)cc(Oc3ccccc3)c2)C(C#N)=C(N)Oc2[nH]nc(C)c21` (stereo not shown) [Compound 2.113.], under setting [3], the EC50 was less than 100 nM.

With `CCC1(c2ccc(F)c(Cl)c2)C(C#N)=C(N)Oc2[nH]nc(C)c21` (stereo not shown) [Compound 2.19.], under setting [3], the EC50 is less than 100 nM.

As to `CCCC1(c2cc(Cl)cc(C#N)c2)C(C#N)=C(N)Oc2[nH]nc(C)c21` (stereo not shown) [Compound 2.533], the EC50 under setting [3] is less than 10 nM.

Regarding `CCC1(c2cc(Cl)cc(C#N)c2)C(C#N)=C(N)Oc2[nH]nc(C(F)F)c21` (stereo not shown) [Compound 2.605], under setting [3], the EC50 is less than 10 nM.

Under setting [3], `CCC1(c2cc(C#N)cc(C(F)(F)F)c2)C(C#N)=C(N)Oc2[nH]nc(C(F)F)c21` (stereo not shown) [Compound 2.606] registered an EC50 of less than 10 nM.

`CCCC1(c2cc(C#N)cc(C(F)(F)F)c2)C(C#N)=C(N)Oc2[nH]nc(CC)c21` (stereo not shown) [Compound 2.575] came in with an EC50 under setting [3] of less than 10 nM.

On to `CC(C)C1(c2cc(C#N)cc(C#N)c2)C(C#N)=C(N)Oc2[nH]ncc21` (stereo not shown) [Compound 2.336], for which the EC50 under setting [1] is less than 10 nM.

`Cc1n[nH]c2c1C(c1cc(C#N)cc(-c3cc(C(=O)O)cc([N+](=O)[O-])c3)c1)(C1CCC1)C(C#N)=C(N)O2` (stereo not shown) [Compound 2.566]: the EC50 under setting [3] was less than 10 nM.

`Cc1n[nH]c2c1C(c1cc(Cl)cc(-c3ccc(F)cc3)c1)(C1CCC1)C(C#N)=C(N)O2` (stereo not shown) [Compound 2.224] displayed an EC50 under setting [1] of less than 10 nM.

Compound `Cc1n[nH]c2c1C(c1ccc(Cl)c(Cl)c1)(C(C)C)C(C#N)=C(N)O2` (stereo not shown) [Compound 2.135.] displayed an EC50 under setting [3] of less than 100 nM.

In turn, `Cc1n[nH]c2c1C(c1ccc(Cl)c(Cl)c1)(C1CCCCC1)C(C#N)=C(N)O2` (stereo not shown) [Compound 2.212.] registered an EC50 under setting [3] of less than 10000 nM.

Regarding `Cc1n[nH]c2c1C(c1cc(-c3nnn[nH]3)cc(N(C)C(=O)CCC#N)c1)(C1CCC1)C(C#N)=C(N)O2` (stereo not shown) [Compound 2.668], under setting [4], the EC50 is less than 100 nM.

`CCC1(c2ccc(Oc3ccccc3)cc2)C(C#N)=C(N)Oc2[nH]nc(C3CC3)c21` (stereo not shown) [Compound 2.131.] registered an EC50 under setting [3] of less than 10000 nM.

Under setting [1], `Cc1n[nH]c2c1C(c1cc(Cl)cc(C#N)c1)(C1CC1)C(C#N)=C(N)O2` (stereo not shown) [Compound 2.359] displayed a concentration for a half-maximal effect (EC50) of less than 10 nM.

Compound `CCC1(c2ccc(F)c(F)c2)C(C#N)=C(N)Oc2[nH]nc(C)c21` (stereo not shown) [Compound 2.16.] registered an EC50 under setting [3] of less than 10000 nM.

Consider `Cc1n[nH]c2c1C(c1cc(Cl)cc(C#N)c1)(C1CC=CC1)C(C#N)=C(N)O2` (stereo not shown) [Compound 2.368], for which, under setting [1], the EC50 was less than 10 nM.

Compound `N#CC1=C(N)Oc2[nH]nc(C3CC3)c2C1(c1cccc(C(F)(F)F)c1)C1CCC1` (stereo not shown) [Compound 2.171.] displayed an EC50 under setting [3] of less than 100 nM.

`N#CC1=C(N)Oc2[nH]nc(C(F)F)c2C1(c1cccc(C#N)c1)C1CCC1` (stereo not shown) [Compound 2.194.] displayed an EC50 under setting [3] of less than 1000 nM.

Under setting [4], `Cc1n[nH]c2c1C(c1cc(CCc3nnn[nH]3)cc(-c3nnn[nH]3)c1)(C1CCC1)C(C#N)=C(N)O2` (stereo not shown) [Compound 2.655] yielded an EC50 of less than 10000 nM.

On to `CCC1(c2ccc(NC(C)=O)cc2)C(C#N)=C(N)Oc2[nH]nc(C)c21` (stereo not shown) [Compound 2.6.], for which, under setting [3], the EC50 was less than 10000 nM.

For `Cc1n[nH]c2c1C(c1cc(Cl)c3c(c1)CCO3)(C1CCC1)C(C#N)=C(N)O2` (stereo not shown) [Compound 4.12], the EC50 under setting [2] is less than 10 nM.

With `COc1ccc(Oc2cc(Cl)cc(C3(C4CCC4)C(C#N)=C(N)Oc4[nH]ncc43)c2)cc1` (stereo not shown) [Compound 2.343], the EC50 under setting [1] was less than 10 nM.

As for `CCCC1(c2cc(C#N)cc(C#N)c2)C(C#N)=C(N)Oc2[nH]nc(C)c21` (stereo not shown) [Compound 2.535], the EC50 under setting [3] is less than 10 nM.

Turning to `Cc1n[nH]c2c1C(c1cc(OCc3nnn[nH]3)cc(C(F)(F)F)c1)(C1CCC1)C(C#N)=C(N)O2` (stereo not shown) [Compound 2.474], the EC50 under setting [3] was less than 10 nM.

`Cc1n[nH]c2c1C(c1cc(Br)cc(C#N)c1)(C1CC=CC1)C(C#N)=C(N)O2` (stereo not shown) [Compound 2.377] gave an EC50 under setting [1] of less than 10 nM.

As for `Cc1n[nH]c2c1C(c1ccc(-c3cccc(F)c3)s1)(C1CC1)C(C#N)=C(N)O2` (stereo not shown) [Compound 4.56], the EC50 under setting [2] is less than 100 nM.

The compound `CCC1(c2ccc(F)cc2)C(C#N)=C(N)Oc2[nH]nc(C)c21` (stereo not shown) [Compound 2.2.] displayed an EC50 under setting [3] of less than 10000 nM.

`COc1n[nH]c2c1C(c1cc(C#N)cc(C(F)(F)F)c1)(C1CC1)C(C#N)=C(N)O2` (stereo not shown) [Compound 2.392] gave an EC50 under setting [1] of less than 100 nM.

On to `CC(C)C1(c2cc(C#N)cc(C(F)(F)F)c2)C(C#N)=C(N)Oc2[nH]ncc21` (stereo not shown) [Compound 2.337], for which the EC50 under setting [1] is less than 10 nM.

`COc1ccc2cc(C3(C4CCC4)C(C#N)=C(N)Oc4[nH]nc(CO)c43)ccc2c1` (stereo not shown) [Compound 4.77] came in with an EC50 under setting [2] of less than 1000 nM.

On to `CCc1n[nH]c2c1C(c1ccc(Cl)cc1)(C1CCC1)C(C#N)=C(N)O2` (stereo not shown) [Compound 2.139.], for which the EC50 under setting [3] was less than 1000 nM.

As for `Cc1n[nH]c2c1C(c1cc(CCc3nnn[nH]3)cc(-c3nnn[nH]3)c1)(C(C)C)C(C#N)=C(N)O2` (stereo not shown) [Compound 2.716], under setting [4], the EC50 was less than 10000 nM.

Under setting [3], `COc1c(Cl)cc(C2(C3CCC3)C(C#N)=C(N)Oc3[nH]nc(C)c32)cc1C#N` (stereo not shown) [Compound 2.487] registered an EC50 of less than 10 nM.

Compound `Cc1n[nH]c2c1C(c1cncc(Cl)c1)(C1CCC1)C(C#N)=C(N)O2` (stereo not shown) [Compound 4.11] showed an EC50 under setting [2] of less than 10 nM.

`Cc1n[nH]c2c1C(c1cc(Cl)cc(Oc3ccc(O)cc3[N+](=O)[O-])c1)(C1CCC1)C(C#N)=C(N)O2` (stereo not shown) [Compound 2.481]: the EC50 under setting [3] was less than 10 nM.

For the compound `Cc1n[nH]c2c1C(c1cc(C#N)cc(N(C)C(=O)c3cccc(C(=O)O)c3)c1)(C(C)C)C(C#N)=C(N)O2` (stereo not shown) [Compound 2.717], under setting [4], the EC50 was less than 100 nM.

`CCC1(c2cc(Cl)cc(C#N)c2)C(C#N)=C(N)Oc2[nH]nc(COC)c21` (stereo not shown) [Compound 2.587] showed an EC50 under setting [3] of less than 1000 nM.

For `Cc1n[nH]c2c1C(c1ccc(C(=O)O)c(Cl)c1)(C1CCC1)C(C#N)=C(N)O2` (stereo not shown) [Compound 2.594], under setting [3], the EC50 was less than 1000 nM.

Under setting [3], `Cc1n[nH]c2c1C(c1ccc(Cl)cc1)(C1CCC1)C(C#N)=C(N)O2` (stereo not shown) [Compound 2.138.] registered an EC50 of less than 1000 nM.

Consider `Cc1n[nH]c2c1C(c1cc(Cl)cc(Oc3cccc(Cl)c3)c1)(C1CC1)C(C#N)=C(N)O2` (racemic) [Compound 2.347], for which, under setting [1], the EC50 was less than 10 nM.

With `COC(=O)c1cc(F)cc(-c2cc(C#N)cc(C3(C4CCC4)C(C#N)=C(N)Oc4[nH]nc(C)c43)c2)c1` (stereo not shown) [Compound 2.513], the EC50 under setting [3] is less than 10 nM.

In the case of `COc1ccc(C2(C3CCCC3)C(C#N)=C(N)Oc3[nH]nc(C)c32)cc1C(F)(F)F` (stereo not shown) [Compound 2.215], the EC50 under setting [1] was less than 10 nM.

Regarding `Cc1n[nH]c2c1C(c1ccc(F)c(Cl)c1)(C(C)C)C(C#N)=C(N)O2` (stereo not shown) [Compound 2.134.], the EC50 under setting [3] was less than 100 nM.

Regarding `Cc1n[nH]c2c1C(c1ccc3c(c1)OC(F)(F)O3)(C1(F)COC1)C(C#N)=C(N)O2` (racemic) [Compound 4.84], the EC50 under setting [2] was less than 10000 nM.

On to `CCC1(c2cc(Oc3ccccc3)cc(C(F)(F)F)c2)C(C#N)=C(N)Oc2[nH]nc(C)c21` (stereo not shown) [Compound 2.86.], for which, under setting [3], the EC50 was less than 1000 nM.

For the compound `Cc1n[nH]c2c1C(c1ccc(OCc3ccccc3)c(Cl)c1)(C(C)C)C(C#N)=C(N)O2` (stereo not shown) [Compound 2.185.], the EC50 under setting [3] is less than 100 nM.

The compound `CCC1(c2cccc(C(F)(F)F)c2)C(C#N)=C(N)Oc2[nH]nc(C(C)C)c21` (stereo not shown) [Compound 2.118.] gave an EC50 under setting [3] of less than 1000 nM.
